Test results from ChEMBL document CHEMBL3352468, “Synthesis and receptor binding in trans-CD ring-fused A-CD estrogens: comparison with the cis-fused isomers” (Bioorg Med Chem Lett, 2014).

Columns and labels:
[1] = organism: Homo sapiens; assay: Selectivity ratio of RBA for ERbeta (unknown origin) to RBA for ERalpha (unknown origin)
[2] = target: Estrogen receptor beta (Homo sapiens) (UniProt Q92731); assay: Binding affinity to ERbeta (unknown origin) relative to estradiol
Chain of Estrogen receptor beta (Homo sapiens) (Q92731 whole entry): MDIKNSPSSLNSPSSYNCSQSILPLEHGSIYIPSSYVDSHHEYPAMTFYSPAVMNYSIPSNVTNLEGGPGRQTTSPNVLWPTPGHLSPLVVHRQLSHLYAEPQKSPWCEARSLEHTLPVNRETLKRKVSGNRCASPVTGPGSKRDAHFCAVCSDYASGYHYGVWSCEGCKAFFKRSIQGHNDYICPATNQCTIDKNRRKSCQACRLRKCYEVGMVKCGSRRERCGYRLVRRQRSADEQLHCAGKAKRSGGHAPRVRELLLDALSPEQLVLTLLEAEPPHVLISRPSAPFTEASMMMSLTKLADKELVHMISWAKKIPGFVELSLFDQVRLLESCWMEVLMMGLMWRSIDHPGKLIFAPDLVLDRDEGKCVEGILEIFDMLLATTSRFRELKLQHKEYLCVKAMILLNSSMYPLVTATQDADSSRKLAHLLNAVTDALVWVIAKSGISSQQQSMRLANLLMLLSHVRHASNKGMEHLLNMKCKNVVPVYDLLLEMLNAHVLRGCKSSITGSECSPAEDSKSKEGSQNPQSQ

Row | Structure (SMILES) | Selectivity ratio [1] | relative binding affinity (RBA) [2]
1 | C[C@]12CC[C@H](c3ccc(O)c(F)c3F)C[C@H]1CC[C@@H]2O | 9.3 | 42.8
2 | C[C@]12CC=C(c3cc(F)c(O)c(F)c3Cl)C[C@H]1CC[C@@H]2O | 1.8 | 6
3 | C[C@]12CC=C(c3ccc(O)cc3F)C[C@H]1CC[C@@H]2O | 11 | 49
4 | C[C@]12CC[C@H](c3cc(F)c(O)c(F)c3F)C[C@H]1CC[C@@H]2O | 9.3 | 1.73
5 | C[C@]12CC=C(c3ccc(O)cc3)C[C@H]1CC[C@@H]2O | 17 | 6.8
6 | C[C@]12CC[C@H](c3cc(F)c(O)c(F)c3F)C[C@@H]1CC[C@@H]2O | 3.3 | 0.097
7 | Cc1cc(O)ccc1[C@H]1CC[C@@]2(C)[C@H](CC[C@@H]2O)C1 | 11.9 | 33.6
8 | C[C@]12CC=C(c3ccc(O)cc3F)C[C@@H]1CC[C@@H]2O | 1.7 | 38
9 | C[C@]12CC=C(c3cc(F)c(O)c(F)c3F)C[C@@H]1CC[C@@H]2O | 0.8 | 0.076
10 | Cc1cc(O)ccc1[C@H]1CC[C@@]2(C)[C@@H](CC[C@@H]2O)C1 | 2.8 | 1.3
11 | COc1cc(O)ccc1[C@H]1CC[C@@]2(C)[C@H](CC[C@@H]2O)C1 | 7.7 | 0.123
12 | C[C@]12CC[C@H](c3ccc(O)c(F)c3F)C[C@@H]1CC[C@@H]2O | 7.9 | 7.3
13 | C[C@]12CC=C(c3ccc(O)c(F)c3Cl)C[C@H]1CC[C@@H]2O | 3 | 149
14 | COc1cc(O)ccc1C1=CC[C@@]2(C)[C@@H](CC[C@@H]2O)C1 | 4.8 | 0.029
15 | Cc1c([C@H]2CC[C@@]3(C)[C@@H](CC[C@@H]3O)C2)cc(F)c(O)c1F | 2.8 | 0.226
16 | C[C@]12CC[C@H](c3ccc(O)cc3F)C[C@H]1CC[C@@H]2O | 5 | 136
17 | C[C@]12CC=C(c3ccc(O)cc3Cl)C[C@@H]1CC[C@@H]2O | 1.5 | 14.1

Row | Structure (SMILES) | Selectivity ratio [1] | relative binding affinity (RBA) [2]
18 | C[C@]12CC=C(c3ccc(O)cc3)C[C@@H]1CC[C@@H]2O | 4.7 | 17.3
19 | C[C@]12CC[C@H](c3ccc(O)cc3O)C[C@@H]1CC[C@@H]2O | 4.1 | 0.15
20 | Cc1c([C@H]2CC[C@@]3(C)[C@H](CC[C@@H]3O)C2)cc(F)c(O)c1F | 7.1 | 5.35
21 | C[C@]12CC[C@H](c3ccc(O)c(F)c3)C[C@@H]1CC[C@@H]2O | 4.1 | 6.84
22 | COc1cc(O)ccc1[C@H]1CC[C@@]2(C)[C@@H](CC[C@@H]2O)C1 | 3.7 | 0.037
23 | C[C@]12CC[C@H](c3ccc(O)cc3C(F)(F)F)C[C@@H]1CC[C@@H]2O | 1 | 4.9
24 | C[C@]12CC=C(c3ccc(O)cc3Cl)C[C@H]1CC[C@@H]2O | 2 | 118
25 | C[C@]12CC[C@H](c3ccc(O)c(F)c3)C[C@H]1CC[C@@H]2O | 8.4 | 8.7
26 | C[C@]12CC[C@H](c3ccc(O)cc3)C[C@@H]1CC[C@@H]2O | 4.2 | 10
27 | C[C@]12CC[C@H](c3ccc(O)cc3O)C[C@H]1CC[C@@H]2O | 15.3 | 3.97
28 | C[C@]12CC=C(c3ccc(O)cc3C(F)(F)F)C[C@H]1CC[C@@H]2O | 1.4 | 174
29 | C[C@]12CC[C@H](c3ccc(O)cc3)C[C@H]1CC[C@@H]2O | 14.6 | 21.5
30 | C[C@]12CC[C@H](c3ccc(O)cc3F)C[C@@H]1CC[C@@H]2O | 3.2 | 13.6
31 | COc1cc(O)ccc1C1=CC[C@@]2(C)[C@H](CC[C@@H]2O)C1 | 5.5 | 0.022
32 | C[C@]12CC=C(c3ccc(O)c(Cl)c3Cl)C[C@H]1CC[C@@H]2O | 18.3 | 55
33 | C[C@]12CC=C(c3cc(F)c(O)cc3F)C[C@H]1CC[C@@H]2O | 6.1 | 2.7
